In patent publication US20060148842A1, “Nepetalactams and N-substituted derivatives thereof” (priority 2004, published 2006):

Test system: Aedes aegypti mosquitoes
Assay: in vitro Gupta box landing assay (insect repellency)
Settings: 20 min; 1.0% (w/v) in IPA, 25 μL on Baudruche membrane; landings of female Aedes aegypti over 20 min vs IPA control
Procedure: The products of Examples 1-15 were evaluated for insect repellency against Aedes aegypti mosqutioes in the in vitro Gupta box landing assay. In this method a chamber contained 5 wells, each covered by a Baudruche (animal intestine) membrane. Each well was filled with bovine blood containing sodium citrate (to prevent clotting) and ATP (72 mg ATP disodium salt per 26 ml of blood), and heated to 37° C. A volume of 25 μL of isopropyl alcohol (IPA) containing one test specimen or control was applied to each membrane. The concentrations were 1.0% (w/v) in IPA. The negative control was membrane surface treated with neat IPA, and the positive control was a 1.0% (w/v) solution of DEET.
After 5 min, approximately 250 4-day-old female Aedes aegypti mosquitoes were introduced into the chamber. The number of mosquitoes probing the membranes for each treatment was recorded at 2 min intervals over 20 min. The results obtained in this manner with respect to the compounds of Examples 1˜12 are depicted, respectively, in FIGS. 1-12 (labeled as Examples 16˜27) wherein each datum represents the mean of five replicate experiments.
where C=the total number of landings on the IPA control well, and T=the total number of landings on the test solution well. The % mean repellencies at 1% (w/v) with respect to the compounds of Examples 1˜15 are depicted in Table 2, wherein R refers to the substituent on nepetalactam.

Compared with `CC1=CNC(=O)[C@H]2[C@@H]1CC[C@@H]2C` [II, (4aS,7S,7aR)-4,7-dimethyl-2,4a,5,6,7,7a-hexahydro-1H-cyclopenta [c]pyridin-1-one], `CC1=CN(C)C(=O)[C@H]2[C@@H]1CC[C@@H]2C` [IIIa, (4aS,7S,7aR)-2,4,7-trimethyl-2,4a,5,6,7,7a-hexahydro-1H-cyclopenta[c]pyridin-1-one] is higher in pest or weed control at 10000 µg/mL: 66% for the first, 94.8% for the second.

Compared with `CCN1C=C(C)[C@H]2CC[C@H](C)[C@H]2C1=O` [IIIb, (4aS,7S,7aR)-2-ethyl-4,7-dimethyl-2,4a,5,6,7,7a-hexahydro-1H-cyclopenta[c]pyridin-1-one], `CCCN1C=C(C)[C@H]2CC[C@H](C)[C@H]2C1=O` [IIIc, (4aS,7S,7aR)-2-n-propyl-4,7-dimethyl-2,4a,5,6,7,7a-hexahydro-1H-cyclopenta[c]pyridin-1-one] is higher in pest or weed control at 10000 µg/mL: 97.9% for the first, 99.8% for the second.

Compared with `CCCCN1C=C(C)[C@H]2CC[C@H](C)[C@H]2C1=O` [IIId, (4aS,7S,7aR)-2-n-butyl-4,7-dimethyl-2,4a,5,6,7,7a-hexahydro-1H-cyclopenta[c]pyridin-1-one], `CCCCCN1C=C(C)[C@H]2CC[C@H](C)[C@H]2C1=O` [IIIe, (4aS,7S,7aR)-2-n-pentyl-4,7-dimethyl-2,4a,5,6,7,7a-hexahydro-1H-cyclopenta[c]pyridin-1-one] is higher in pest or weed control at 10000 µg/mL: 97.3% for the first, 97.5% for the second.

First: CCCCCCN1C=C(C)[C@H]2CC[C@H](C)[C@H]2C1=O [IIIf, (4aS,7S,7aR)-2-n-hexyl-4,7-dimethyl-2,4a,5,6,7,7a-hexahydro-1H-cyclopenta[c]pyridin-1-one]
Second: CCCCCCCCN1C=C(C)[C@H]2CC[C@H](C)[C@H]2C1=O [IIIg, (4aS,7S,7aR)-2-n-octyl-4,7-dimethyl-2,4a,5,6,7,7a-hexahydro-1H-cyclopenta[c]pyridin-1-one]
The pest or weed control at 10000 µg/mL of the first is higher: 97.2% for the first, 93.2% for the second.

Going from `CC1=CN(C2CCCCC2)C(=O)[C@H]2[C@@H]1CC[C@@H]2C` [IIIh, (4aS,7S,7aR)-2-n-cyclohexyl-4,7-dimethyl-2,4a,5,6,7,7a-hexahydro-1H-cyclopenta[c]pyridin-1-one] to `CC1=CN(C(C)C)C(=O)[C@H]2[C@@H]1CC[C@@H]2C` [IIIi, (4aS,7S,7aR)-2-n-isopropyl-4,7-dimethyl-2,4a,5,6,7,7a-hexahydro-1H-cyclopenta[c]pyridin-1-one], the pest or weed control at 10000 µg/mL falls from 98.9% to 94.7%.

Going from `C=CCN1C=C(C)[C@H]2CC[C@H](C)[C@H]2C1=O` [IIIj, (4aS,7S,7aR)-2-n-allyl-4,7-dimethyl-2,4a,5,6,7,7a-hexahydro-1H-cyclopenta[c]pyridin-1-one] to `C#CCN1C=C(C)[C@H]2CC[C@H](C)[C@H]2C1=O` [IIIk, (4aS,7S,7aR)-2-n-propargyl-4,7-dimethyl-2,4a,5,6,7,7a-hexahydro-1H-cyclopenta[c]pyridin-1-one], the pest or weed control at 10000 µg/mL rises from 78.1% to 95.6%.

Going from `CC1=CN(c2ccccc2)C(=O)[C@H]2[C@@H]1CC[C@@H]2C` [Va, (4aS,7S,7aR)-4,7-dimethyl-2-phenyl-2,4a,5,6,7,7a-hexahydro-1H-cyclopenta[c]pyridin-1-one] to `CC1=CN(c2ccc(Cl)cc2)C(=O)[C@H]2[C@@H]1CC[C@@H]2C` [Vb, (4aS,7S,7aR)-2-(4-chlorophenyl)-4,7-dimethyl-2,4a,5,6,7,7a-hexahydro-1H-cyclopenta[c]pyridin-1-one], the pest or weed control at 10000 µg/mL falls from 93.1% to 75.3%.

Work on `CC1=CN(c2ccc(Br)cc2)C(=O)[C@H]2[C@@H]1CC[C@@H]2C` [Vc, (4aS,7S,7aR)-2-(4-bromophenyl)-4,7-dimethyl-2,4a,5,6,7,7a-hexahydro-1H-cyclopenta[c]pyridin-1-one] yielded a pest or weed control at 10000 µg/mL of 41.5%.
